# From paper PMC9925730, “Controlled sequential in situ self-assembly and disassembly of a fluorogenic cisplatin prodrug for cancer theranostics” (Nature Communications, 2023)
# “And” between values parts separate entries of the source, which are not always exact repeats. Identical values can stand only once.
# Tests used:
# ALP [1] = molecular target: T1, ALP (Bos taurus, UniProt P19111); assay: Enzyme kinetics of P-CyPt towards ALP (Lineweaver-Burk); type: biochemical; details: ALP (20 U/L)
# T1 construct: Alkaline phosphatase from bovine; purchased Sigma-Aldrich; host or cells: bovine intestinal mucosa (tissue-derived)
# T1 sequence (P19111 20-533): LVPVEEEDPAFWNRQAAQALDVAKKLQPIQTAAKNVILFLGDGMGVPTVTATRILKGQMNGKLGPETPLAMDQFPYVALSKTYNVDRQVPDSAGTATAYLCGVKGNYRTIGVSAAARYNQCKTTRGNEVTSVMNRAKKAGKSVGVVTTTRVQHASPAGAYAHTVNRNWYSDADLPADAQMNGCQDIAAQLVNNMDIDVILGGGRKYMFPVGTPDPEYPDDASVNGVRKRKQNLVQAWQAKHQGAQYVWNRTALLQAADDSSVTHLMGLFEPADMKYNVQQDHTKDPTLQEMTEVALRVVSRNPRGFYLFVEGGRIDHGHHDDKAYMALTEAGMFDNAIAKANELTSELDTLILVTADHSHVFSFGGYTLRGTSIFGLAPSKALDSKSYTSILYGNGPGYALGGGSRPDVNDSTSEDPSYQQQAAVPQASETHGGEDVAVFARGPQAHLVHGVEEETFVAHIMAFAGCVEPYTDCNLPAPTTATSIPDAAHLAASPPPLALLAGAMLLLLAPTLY
# ALP [2] = assay: as above; type: biochemical; details: Supplementary Fig. 5b; for 1/v, mean: mean of 3 samples
# ALP [3] = assay: Specificity of P-CyPt towards ALP (Trypsin, MMP-2, GGT, CTB, Caspase-3, ALP, ALP + Na3VO4); type: biochemical; details: for Normalized FL intensity at 710 nm, single replicate: individual replicates; for Normalized FL intensity at 710 nm, single replicate / Normalized FL intensity at 710 nm, mean: Supplementary Fig. 7b
# s.c. HeLa tumors [4] = assay: PA imaging of s.c. HeLa tumors in vivo; design: species or system mice; details: i.v., 2 h post-injection
# Description: (100 μM, in 200 μL saline). Whole body FL images of mice prior to (pre) and at 1 h, 2 h, 4 h, 8 h post injection of P-CyPt or […] acquired on the IVIS Lumina XR III imaging system, using a 660 nm excitation filter and a 750 ± 50 nm emission filter. Each experiment was conducted in three mice. The FL intensities were quantified by the region of interest (ROI) measurement using Living Image Software (4.5.2, PerkinElmer, MA, U.S.A). […] (500 μM, in 200 μL saline). The PA images of the s.c. HeLa tumors in mice prior to (pre), and at 1, 2, 4 h post injection were captured on the Vevo 2100 LAZR system (FUJIFILM VisualSonics), with excitation at 700 and 750 nm. The PA intensities were quantified by the equipped software.
# s.c. HeLa tumors [5] = assay: Ex vivo FL imaging of resected tumors and organs; type: in vivo, mice; details: 4 h post i.v. injection
# Description: Supplementary Figure 27. Ex vivo FL imaging of tumors and main organs. (a) Representative ex vivo FL images (λex/em = 660/750 ± 50 nm) and (b) average FL intensities of tumors and main organs resected from P-CyPt- or PtIVNPs-treated HeLa […]
# 200 μL). After 4 h, the mice were sacrificed. Tumors (T) and main organs, including liver (L), heart (H), spleen (Sp), lung (Lu), kidney (K), stomach (St), and intestine (In) were resected, and the FL images were acquired on the IVIS spectrum imager. Values denote mean ± s.d. (n = 3 independent animals). Statistical difference was analyzed by Student’s two-sided t-test. Source data are provided as a Source Data file.
# Supplementary Figure 28. FL imaging of resected tumor tissue slices. FL images of tumor tissue slices (10 μm thickness) resected from s.c. HeLa tumor-bearing mice at 4 h after i.v. injection of PBS (200 μL), PtIVNPs or P-CyPt (100 μM, 200 μL). Cell nuclei were co-stained with DAPI (blue). […]
# μm. […] The fluorescence images of the MCTS were captured on a Leica TCS SP8 confocal laser scanning microscope, microscope (TCS SP8 STED 3X) with 10x/0.4 dry lens (Leica), and captured at RGB on a HyD detector (Leica Dmi8) under PI and Cy5.5 channels. […]
# were sacrificed after 4 h. […] The fluorescence images of these organs and tumors were acquired with the IVIS Lumina XR III imaging system using a 660 nm excitation filter and a 750 ± 50 nm emission filter. […]
compound,measurement,setting,value
CC1(C)C(/C=C/C2=C3Oc4cc(OP(=O)(O)O)c(Cl)cc4C=C3CCC2)=[N+](CCCNC(=O)[C@@H](Cc2ccccc2)NC(=O)[C@@H](Cc2ccccc2)NC(=O)CCC(=O)[O][Pt]([NH2])([NH2])([OH])([Cl])[Cl])c2ccccc21 [P-CyPt],Vmax,ALP [1],0.55 µM/min
same,Km,ALP [1]; P-CyPt 0.5-5.0 μM,14 µM
same,"1/v, single samples (sample-1 to sample-3)",ALP [2]; 1/S [μM] 0.2,7.131 min/µM and 6.758 min/µM and 6.78 min/µM
same,"1/v, mean",ALP [2]; 1/S [μM] 0.2,6.889 min/µM
same,"1/v, single samples (sample-1 to sample-3)",ALP [2]; 1/S [μM] 0.25,8.023 min/µM and 8.58 min/µM and 6.977 min/µM
same,"1/v, mean",ALP [2]; 1/S [μM] 0.25,7.860 min/µM
same,"1/v, single samples (sample-1 to sample-3)",ALP [2]; 1/S [μM] 0.333333,10.0959 min/µM and 10.7285 min/µM and 10.3072 min/µM
same,"1/v, mean",ALP [2]; 1/S [μM] 0.333333,10.377 min/µM
same,"1/v, single samples (sample-1 to sample-3)",ALP [2]; 1/S [μM] 0.5,12.1342 min/µM and 13.921 min/µM and 15.7076 min/µM
same,"1/v, mean",ALP [2]; 1/S [μM] 0.5,13.921 min/µM
same,"1/v, single samples (sample-1 to sample-3)",ALP [2]; 1/S [μM] 1,22.8038 min/µM and 25.6597 min/µM and 28.5158 min/µM
same,"1/v, mean",ALP [2]; 1/S [μM] 1,25.660 min/µM
same,"1/v, single samples (sample-1 to sample-3)",ALP [2]; 1/S [μM] 2,49.1562 min/µM and 54.4739 min/µM and 57.4911 min/µM
same,"1/v, mean",ALP [2]; 1/S [μM] 2,53.707 min/µM
same,"Normalized FL intensity at 710 nm, single replicate",ALP [3]; Enzyme type: ALP+Na3VO4,1.0416 and 1.0656 and 1.1392
same,"Normalized FL intensity at 710 nm, mean","ALP [3]; Enzyme type: ALP+Na3VO4, mean of 3 replicates",1.082
same,"Normalized FL intensity at 710 nm, single replicate",ALP [3]; Enzyme type: ALP+PBS,1.0305 and 1.3734 and 1.3861
same,"Normalized FL intensity at 710 nm, mean","ALP [3]; Enzyme type: ALP+PBS, mean of 3 replicates",1.263
same,"Normalized FL intensity at 710 nm, single replicate",ALP [3]; Enzyme type: ALP,7.7619 and 9.0065 and 9.1858
same,"Normalized FL intensity at 710 nm, mean","ALP [3]; Enzyme type: ALP, mean of 3 replicates",8.651
same,"Normalized FL intensity at 710 nm, single replicate",ALP [3]; Enzyme type: CTB,0.9991 and 1.017 and 1.1059
same,"Normalized FL intensity at 710 nm, mean","ALP [3]; Enzyme type: CTB, mean of 3 replicates",1.041
same,"Normalized FL intensity at 710 nm, single replicate",ALP [3]; Enzyme type: GGT,0.8869 and 1.0719 and 1.0726
same,"Normalized FL intensity at 710 nm, mean","ALP [3]; Enzyme type: GGT, mean of 3 replicates",1.010
same,"Normalized FL intensity at 710 nm, single replicate",ALP [3]; Enzyme type: MMP-2,0.9603 and 0.9824 and 1.1444
same,"Normalized FL intensity at 710 nm, mean","ALP [3]; Enzyme type: MMP-2, mean of 3 replicates",1.029
same,"Normalized FL intensity at 710 nm, single replicate",ALP [3]; Enzyme type: Tris (buffer only),0.9358 and 0.9007 and 1.1635
same,"Normalized FL intensity at 710 nm, mean","ALP [3]; Enzyme type: Tris (buffer only), mean of 3 replicates",1.000
same,"Normalized FL intensity at 710 nm, single replicate",ALP [3]; Enzyme type: Trypsin,0.935 and 0.9815 and 1.0282
same,"Normalized FL intensity at 710 nm, mean","ALP [3]; Enzyme type: Trypsin, mean of 3 replicates",0.982
same,"NIR fluorescence signal of P-CyPt after incubation with enzyme (Supplementary Fig. 7, enzyme types), individual replicates","ALP [3]; enzyme: Casepase-3, individual replicate values (n=3)",1.0789 and 1.0855 and 1.1465
same,"NIR fluorescence signal of P-CyPt after incubation with enzyme (Supplementary Fig. 7, enzyme types), mean","ALP [3]; enzyme: Casepase-3, mean of 3 replicates",1.104
same,tumor PA intensity at 700 nm higher than with Pt^IVNPs,s.c. HeLa tumors [4],~3.4 fold
same,tumor PA intensity at 750 nm higher than with Pt^IVNPs,s.c. HeLa tumors [4],~4.3 fold
same,ex vivo tumor FL intensity higher than Pt^IVNPs-treated tumors,s.c. HeLa tumors [5],~ 3.2 fold
